According to patent publication US11498943B2, “Amyloid inhibitory peptides” (TECHNISCHE UNIVERSITÄT MÜNCHEN, priority 2018, dated 2022):
Where a SMILES comes first, the peptide text is derived from it. [ ]: non-standard residue; d: D form. NMeI = CC[C@H](C)[C@H](NC)C(=O)O; Sar = CNCC(=O)O

Tests used:
[1] = Peptide stability in human plasma (in vitro); format: in vitro ADME; settings: human blood plasma, 200 μM peptide, 37° C., read-out: t1/2 in human plasma
Protocol: Peptide Stability in Human Plasma (In Vitro)
Peptides were dissolved in human blood plasma (obtained from voluntary healthy donors) at a concentration of 200 μM and incubated at 37° C. for various time intervals. Following quenching (1/1) with aqueous trichloroacetic acid (10%), solutions were incubated on ice for 10 min, subjected to centrifugation to precipitate plasma proteins (20200 g; 4 min), and the supernatants were mixed (1/2) with a solution consisting of 80% HPLC buffer B and 20% HPLC buffer A (see below). To quantify intact peptide at different time points, solutions containing the supernatants were analyzed by RP-HPLC (detection at 214 nm) by using a Nucleosil 100 C18 column (Grace) (length 33 mm length, ID 8 mm, 7 μm particle size) with a flow rate of 2.0 ml/min and eluting buffers A, 0.058% (v/v) TFA in water, and B, 0.05% (v/v) TFA in 90% (v/v) CH3CN in water. The elution gradient was 10-90% B in A over 8 min; this step was followed by a 90-10% B in A over 3 min step to establish starting conditions. HPLC fractions were collected, lyophilized, and analyzed by MALDI-TOF-MS using a Bruker Daltonik MALDI-TOF MS instrument.

Aβ40 [2] = target: T1, Aβ40 (Homo sapiens, UniProt P05067); test: Aβ40 fibrillogenesis by ThT binding, confirmed by TEM, with cell damage by MTT reduction; format: biochemical; settings: Aβ40 16.5 μM, MTT in PC12 cells
T1 construct: Aβ40 (TFA salt) was synthesized by Fmoc-based solid phase synthesis (SPPS); made in house; host or cells: chemical synthesis (Fmoc SPPS on Tentagel R PHB resin)
T1 sequence (P05067 672-711): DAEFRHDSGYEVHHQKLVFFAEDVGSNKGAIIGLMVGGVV
Protocol: (§1) Thioflavin T (ThT) Binding Assays
(§2) At indicated time points, aliquots were gently mixed with a ThT solution (20 μM ThT in 0.05 M glycine/NaOH, pH 8.5); ThT binding was determined immediately by measuring fluorescence emission at 486 nm upon excitation at 450 nm using a 2030 Multilabel Reader VictorX3 (PerkinElmer Life Sciences). Effects of peptides added at specific pre- and post-nucleation time points of Aβ40 amyloidogenesis were studied by adding aliquots of Aβ40 solutions (16.5 μM; incubation conditions as above) aged for the indicated time points to the peptide (in dry form) as previously described and ThT binding was determined as above.
(§3) 10 μl aliquots of solutions of the ThT binding and MTT assays were applied on carbon-coated grids at indicated time points, washed with distilled water and stained with aqueous 2% (w/v) uranyl acetate as described. Grids were examined using a JEOL JEM 100CX (at 100 kV) or a JEOL 1400 Nus electron microscope (at 120 kV).
(§4) Both cell lines were cultured and plated in 96-well plates as described. […] Following incubation with the cells for ˜20 h (37° C., humidified atmosphere with 5% CO2), the MTT reduction assay was used to assess cell damage/metabolic activity as previously described.

Aβ40 [3] = target: T1, Aβ40; settings: Aβ40 500 nM; value marked with literature reference [5]; read-out: IC50 (±SD) (nM) Aβ40 inhibition; cited from earlier work
Aβ40 [4] = target: T1, Aβ40; settings: as previously found; cited from earlier work
IAPP [5] = target: T2, IAPP (Homo sapiens, UniProt P10997); test: IAPP fibrillogenesis by ThT binding, confirmed by TEM, with cell damage by MTT reduction; format: biochemical; set-up: IAPP was synthesized by SPPS and the Fmoc-strategy on RINK resin, subjected to air oxidation and purified by RP-HPLC; made in house; host or cells: chemical synthesis (Fmoc SPPS on RINK resin, air oxidation); settings: IAPP 6 μM, MTT in RIN5fm cells
T2 sequence (P10997 34-70 limits assumed): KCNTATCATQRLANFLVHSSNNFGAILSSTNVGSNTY
Protocol: as §1, §2, §3, §4

IAPP [6] = target: T2, IAPP; set-up: IAPP was synthesized by SPPS and the Fmoc-strategy on RINK resin, subjected to air oxidation and purified by RP-HPLC; made in house; host or cells: chemical synthesis (Fmoc SPPS on RINK resin, air oxidation); settings: as previously found; cited from earlier work

half-life at 200 μM [1]: ~20 min
Compound: CC[C@H](C)[C@@H](C(=O)N[C@@H](CC(C)C)C(=O)N[C@@H](CO)C(N)=O)N(C)C(=O)[C@H](C)NC(=O)CN(C)C(=O)[C@H](Cc1ccccc1)NC(=O)[C@H](CC(N)=O)NC(=O)[C@H](CCCNC(=N)N)NC(=O)[C@H](CCCNC(=N)N)NC(=O)[C@H](CCCNC(=N)N)NC(=O)[C@H](Cc1c[nH]cn1)NC(=O)[C@@H](NC(=O)[C@H](CC(C)C)NC(=O)[C@H](Cc1ccccc1)NC(=O)[C@H](CC(N)=O)NC(=O)[C@H](C)NC(=O)[C@H](CC(C)C)NC(=O)[C@H](CCCNC(=N)N)NC(=O)[C@H](CCC(N)=O)NC(=O)[C@@H](NC(=O)[C@H](C)N)[C@@H](C)O)C(C)C [R3-GI (1)] (H-ATQRLANFLVHRRRNF[Sar]A[NMeI]LS-NH2; N-terminus assumed)
Effect on amyloid self-assembly and cell-damaging effects of Aβ40 (Aβ40 [2]): able to inhibit
IC50 (Aβ40 [3]): 116 nM
app. Kd of interaction with fluorescently labeled Aβ40 (Aβ40 [4]): mid-nanomolar
Effect on amyloid self-assembly and cell damage by IAPP (IAPP [5]): not IAPP amyloidogenesis
app. Kd of interaction with fluorescently labeled IAPP (IAPP [6]): mid-nanomolar
